Laboratory results as given in patent US20180071242A1, “SUBSTITUTED ACYLANILIDES AND METHODS OF USE THEREOF” (University of Tennessee Research Foundation, priority 2006, published 2018).
Entries after “also recorded” stand apart in the source; their conditions may differ.

Assays:
CYP1A2 = molecular target: T1, CYP1A2 (Homo sapiens, UniProt P05177); assay: CYP inhibition screening, recombinant enzyme (fluorescent-based) assay
T1 sequence (P05177 1-516): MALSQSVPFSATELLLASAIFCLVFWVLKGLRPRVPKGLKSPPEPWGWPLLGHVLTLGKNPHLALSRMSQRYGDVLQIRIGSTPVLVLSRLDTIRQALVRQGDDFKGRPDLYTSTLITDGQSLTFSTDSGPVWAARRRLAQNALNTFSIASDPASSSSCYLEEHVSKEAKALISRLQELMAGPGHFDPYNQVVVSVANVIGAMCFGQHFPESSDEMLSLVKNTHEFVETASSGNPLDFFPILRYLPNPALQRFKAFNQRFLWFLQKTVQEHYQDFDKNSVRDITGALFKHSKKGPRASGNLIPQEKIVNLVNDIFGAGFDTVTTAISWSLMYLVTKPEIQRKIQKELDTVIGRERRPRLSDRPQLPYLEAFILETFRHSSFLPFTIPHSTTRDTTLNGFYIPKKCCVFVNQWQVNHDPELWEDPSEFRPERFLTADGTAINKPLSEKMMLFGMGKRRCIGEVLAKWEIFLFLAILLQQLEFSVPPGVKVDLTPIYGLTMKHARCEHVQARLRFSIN
Description: (§1) Human recombinant CYP enzymes and fluorescence-based substrates were used to determine the IC50 values of S-(I) against CYP3A4, 2D6, 2C19, 2C9, and 1A2.
(§2) CYP inhibition screening procedures were performed essentially according to the manufacturer's instructions (Gentest, BD Biosciences, Waltham, Mass.). Briefly, CYP enzyme inhibition was measured using human cDNA-expressed CYP3A4, 2D6, 2C19, 2C9, and 1A2 enzymes. Analogs of the model substrate coumarin were utilized for each isoenzyme.
(§3) The concentration of acetonitrile was kept constant at 0.4%, and the reaction was carried out at 37° C. for 30 minutes.
(§4) For IC50 determination, data was fitted using the non-linear regression equation “sigmoidal dose response, variable slope” defined as: Y=Bottom+(Top-Bottom)/(1+10̂((Log EC50−X)*HillSlope)) where X is the logarithm of concentration of the indicated compound, and Y is the response.

CYP2D6 = CYP2D6 (Homo sapiens, UniProt P10635); assay: as above
CYP2D6, sequence (P10635 whole entry): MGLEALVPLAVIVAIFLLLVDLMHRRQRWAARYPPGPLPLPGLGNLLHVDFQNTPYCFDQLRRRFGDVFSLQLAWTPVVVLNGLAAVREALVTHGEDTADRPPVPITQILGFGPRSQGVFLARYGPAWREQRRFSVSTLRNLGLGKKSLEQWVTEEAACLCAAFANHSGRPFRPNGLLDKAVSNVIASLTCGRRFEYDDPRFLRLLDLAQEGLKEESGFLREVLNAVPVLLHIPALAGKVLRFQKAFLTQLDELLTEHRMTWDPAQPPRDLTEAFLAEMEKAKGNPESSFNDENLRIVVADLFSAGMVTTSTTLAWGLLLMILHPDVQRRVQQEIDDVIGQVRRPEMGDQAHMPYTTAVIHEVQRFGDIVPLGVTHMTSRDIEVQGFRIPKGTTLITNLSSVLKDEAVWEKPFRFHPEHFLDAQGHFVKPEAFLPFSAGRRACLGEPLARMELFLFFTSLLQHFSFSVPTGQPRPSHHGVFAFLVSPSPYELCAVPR
Description: as §1, §2, §3, §4

CYP2C9 = molecular target: T2, CYP2C9 (Homo sapiens, UniProt P11712); assay: as above; type: in vitro ADME; conditions: for Inhibition of CYP2C9 activity (in words): human, 30 min
T2 construct: purchased Gentest, BD Biosciences
T2 sequence (P11712 whole entry): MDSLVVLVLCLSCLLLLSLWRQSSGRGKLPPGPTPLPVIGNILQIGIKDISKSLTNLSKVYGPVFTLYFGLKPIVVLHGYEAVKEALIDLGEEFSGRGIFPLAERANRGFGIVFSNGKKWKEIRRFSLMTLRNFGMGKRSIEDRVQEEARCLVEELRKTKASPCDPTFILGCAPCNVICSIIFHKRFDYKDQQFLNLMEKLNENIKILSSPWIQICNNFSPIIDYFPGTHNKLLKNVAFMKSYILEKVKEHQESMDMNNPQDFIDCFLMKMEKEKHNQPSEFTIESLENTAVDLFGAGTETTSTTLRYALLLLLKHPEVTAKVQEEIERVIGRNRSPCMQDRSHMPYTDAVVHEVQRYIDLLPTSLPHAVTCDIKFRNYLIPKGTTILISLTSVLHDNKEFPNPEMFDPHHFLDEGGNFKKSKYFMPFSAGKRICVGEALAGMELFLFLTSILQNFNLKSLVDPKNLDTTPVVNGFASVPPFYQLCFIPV

PR = molecular target: T3, PR (Rattus norvegicus, UniProt Q63449); assay: Transient transfection luciferase transactivation assay in HEK-293 cells; type: cell-based; conditions: for PR-mediated transactivation, agonist mode (in words): all tested concentrations
T3 construct: expressed in transfected cells; host or cells: HEK-293
T3 sequence (Q63449 1-923): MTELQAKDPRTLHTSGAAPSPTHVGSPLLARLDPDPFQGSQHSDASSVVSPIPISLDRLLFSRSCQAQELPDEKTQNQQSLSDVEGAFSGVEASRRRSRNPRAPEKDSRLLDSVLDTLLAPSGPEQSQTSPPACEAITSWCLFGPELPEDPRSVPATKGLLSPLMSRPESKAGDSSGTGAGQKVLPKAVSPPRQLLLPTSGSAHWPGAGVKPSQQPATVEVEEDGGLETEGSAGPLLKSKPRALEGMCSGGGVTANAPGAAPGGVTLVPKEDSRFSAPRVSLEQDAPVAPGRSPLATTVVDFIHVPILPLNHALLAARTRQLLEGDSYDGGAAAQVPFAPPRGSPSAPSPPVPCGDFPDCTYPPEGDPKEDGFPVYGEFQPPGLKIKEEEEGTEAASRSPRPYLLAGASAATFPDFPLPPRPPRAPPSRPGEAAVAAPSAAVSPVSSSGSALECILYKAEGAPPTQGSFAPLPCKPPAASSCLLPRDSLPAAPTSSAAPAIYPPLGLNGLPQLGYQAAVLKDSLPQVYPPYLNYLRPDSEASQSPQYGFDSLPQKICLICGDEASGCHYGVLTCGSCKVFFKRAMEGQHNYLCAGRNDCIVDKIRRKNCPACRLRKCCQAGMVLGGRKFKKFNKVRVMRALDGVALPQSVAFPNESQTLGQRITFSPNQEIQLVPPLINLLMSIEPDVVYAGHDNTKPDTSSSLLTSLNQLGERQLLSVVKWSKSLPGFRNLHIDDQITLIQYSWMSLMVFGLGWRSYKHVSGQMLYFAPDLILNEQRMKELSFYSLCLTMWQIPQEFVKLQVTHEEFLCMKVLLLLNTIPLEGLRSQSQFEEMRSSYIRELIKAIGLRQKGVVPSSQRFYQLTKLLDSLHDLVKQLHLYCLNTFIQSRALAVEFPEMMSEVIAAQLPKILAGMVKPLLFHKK

Pharmacokinetics in dogs = type: in vivo; conditions: beagle dogs
Description: In order to determine the pharmacokinetics of the S-isomer of the compound of formula (I) [S-(I)], the compound was administered to beagle dogs perorally, and circulating plasma levels, terminal elimination half-life (t1/2), total body clearance (CL), terminal volume distribution (Vz) and absolute bioavailability (F %) (Table 4) were determined.

[1] = tested on: DMD (−/−) UTRN (+/+) mice; assay: mdx mouse model of Duchenne muscular dystrophy
[2] = castrated mdx mice, 10 mg/kg/day subcutaneously, 12 weeks
[3] = castrated mdx mice, 10 mg/kg/day subcutaneously, 12 weeks, 10 mg/kg/day
[4] = 1 and 10 μM, with 1 nM progesterone

SMILES	IC50 (CYP1A2)	IC50 (CYP2D6)	IC50 (CYP2C9)	Inhibition of CYP2C9 activity (in words) (CYP2C9)	PR-mediated transactivation, agonist mode (in words) (PR)	Inhibition of PR activity, antagonist mode (in words) (PR; [4])	further results
C[C@](O)(COc1ccc(C#N)cc1)C(=O)Nc1ccc(C#N)c(Cl)c1 [S-(I), (S)—N-(3-chloro-4-cyanophenyl)-3-(4-cyanophenoxy)-2-hydroxy-2-methylpropanamide]	> 20 µM	> 20 µM	5.1 µM	did not appreciably inhibit	partial agonist activity		Inhibition of PR activity, antagonist mode (in words) (PR; 0.1 μM and 10 μM): significantly partially inhibited; Increase of PR transactivation, agonist mode (PR; 1 μM): 3 fold; Inhibition of PR-mediated transactivation, antagonist mode (in words) (PR; 1 μM): completely inhibited; Increase of PR transactivation, agonist mode (PR; 10 μM): 8 fold; PR antagonistic activity relative to RU486 (fold weaker) (PR; versus RU486): about 1,000 fold; PR agonist potency relative to progesterone (fold weaker) (PR; versus endogenous agonist progesterone): greater than 10,000 fold; Absorption (in words) (Pharmacokinetics in dogs; perorally): rapidly and completely absorbed; bioavailability (Pharmacokinetics in dogs; dog, plasma, oral, perorally, read-out: F%, absolute bioavailability): 96.2%; clearance (Pharmacokinetics in dogs; dog, plasma, oral, read-out: CL, total body clearance): 1.68 ± 0.13 mL/min/kg; Vd (Pharmacokinetics in dogs; dog, plasma, oral, read-out: Vz, terminal volume distribution): 1.52 ± 0.142 L/kg; half-life (Pharmacokinetics in dogs; dog, plasma, oral, read-out: t½, terminal elimination half-life (converted)): 10.4 ± 0.5 h; Fat mass (in words) [1, 2]: decrease; Grip strength (in words) [1, 2]: significant increase; Body weight (in words) [1, 3]: increased; also recorded: significant increase; Lean [muscle] mass (in words) [1, 3]: increased; also recorded: significant increase; Body weight (in words) ([1]; intact mdx mice): increased; Lean mass (in words) ([1]; intact mdx mice): increased
C[C@](O)(COc1ccc(F)cc1)C(=O)Nc1ccc(C#N)c(C(F)(F)F)c1 [S-(III)]	> 20 µM	> 20 µM	1.3 µM	moderate inhibition	did not induce	significantly inhibited	
C[C@](O)(COc1ccc(Cl)cc1)C(=O)Nc1ccc(C#N)c(C(F)(F)F)c1 [S-(II)]	> 20 µM	> 20 µM	3.8 µM	moderate inhibition	did not induce	significantly inhibited	
